The term IC50 denotes the concentration that gives 50% inhibition.

The target in one experiment is Human plasma kallikrein (Homo sapiens (Human), UniProt P03952). In words: Determination of the IC50 for plasma kallikrein. It counts as biochemical. The following applies: 37° C., read-out: IC50 (human PKal). How it is done:
Determination of the IC50 for Plasma Kallikrein
Plasma kallikrein inhibitory activity in vitro was determined using standard published methods (see e.g. Johansen et al., Int. J. Tiss. Reac. 1986, 8, 185; Shori et al., Biochem. Pharmacol., 1992, 43, 1209; Stiirzebecher et al., Biol. Chem. Hoppe-Seyler, 1992, 373, 1025). Human plasma kallikrein (Protogen) was incubated at 37° C. with the fluorogenic substrate H-DPro-Phe-Arg-AFC and various concentrations of the test compound. Residual enzyme activity (initial rate of reaction) was determined by measuring the change in optical absorbance at 410 nm and the IC50 value for the test compound was determined.

Another experiment addresses Human KLK1 (Homo sapiens (Human), UniProt P06870). The experiment is described as follows: Determination of the IC50 for KLK1. The following applies: Human KLK1, 37° C., substrate H-DVal-Leu-Arg-AFC. It is filed as biochemical. How it is done:
Determination of the IC50 for KLK1
KLK1 inhibitory activity in vitro was determined using standard published methods (see e.g. Johansen et al., Int. J. Tiss. Reac. 1986, 8, 185; Shori et al., Biochem. Pharmacol., 1992, 43, 1209; Stürzebecher et al., Biol. Chem. Hoppe-Seyler, 1992, 373, 1025). Human KLK1 (Callbiochem) was incubated at 37° C. with the fluorogenic substrate H-DVal-Leu-Arg-AFC and various concentrations of the test compound. Residual enzyme activity (initial rate of reaction) was determined by measuring the change in optical absorbance at 410 nm and the IC50 value for the test compound was determined.

The mark [1] stands for this setting: fluorogenic substrate H-DPro-Phe-Arg-AFC.

Where two headings read alike, the source gives them in different places. A value given as a limit tells only on which side of the number the result lay.

Human plasma kallikrein, sequence (P03952 391-638): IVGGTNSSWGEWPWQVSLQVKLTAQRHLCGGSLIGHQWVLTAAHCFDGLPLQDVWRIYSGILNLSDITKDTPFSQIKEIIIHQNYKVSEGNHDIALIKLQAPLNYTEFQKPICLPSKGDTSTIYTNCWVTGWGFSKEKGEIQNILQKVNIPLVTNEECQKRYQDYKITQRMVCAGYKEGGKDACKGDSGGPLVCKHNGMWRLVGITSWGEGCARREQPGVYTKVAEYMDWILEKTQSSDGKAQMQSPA
Human plasma kallikrein, sequence (P03952 20-390 partner): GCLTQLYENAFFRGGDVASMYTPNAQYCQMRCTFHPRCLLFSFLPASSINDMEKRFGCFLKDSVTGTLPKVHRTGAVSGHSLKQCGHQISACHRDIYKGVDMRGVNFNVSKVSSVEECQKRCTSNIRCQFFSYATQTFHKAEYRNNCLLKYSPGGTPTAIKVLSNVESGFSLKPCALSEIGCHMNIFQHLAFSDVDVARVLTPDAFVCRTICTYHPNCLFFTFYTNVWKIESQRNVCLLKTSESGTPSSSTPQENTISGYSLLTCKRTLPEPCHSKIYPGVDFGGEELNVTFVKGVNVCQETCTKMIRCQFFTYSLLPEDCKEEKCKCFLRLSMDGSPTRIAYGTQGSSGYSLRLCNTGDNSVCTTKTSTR
Human KLK1, sequence (P06870 25-262): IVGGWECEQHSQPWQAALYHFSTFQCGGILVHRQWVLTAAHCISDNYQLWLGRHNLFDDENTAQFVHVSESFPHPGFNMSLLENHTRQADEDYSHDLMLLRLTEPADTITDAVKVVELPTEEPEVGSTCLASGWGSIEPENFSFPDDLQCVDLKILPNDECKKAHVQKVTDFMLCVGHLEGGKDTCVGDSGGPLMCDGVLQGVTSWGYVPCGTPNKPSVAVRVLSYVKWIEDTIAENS

For the molecule `CCOc1ccc(C[C@@H](NC(=O)c2ccco2)C(=O)N[C@@H](Cc2ccccc2)C(=O)NCc2ccc(CN)cc2)cc1` [Example 118, Furan-2-carboxylic acid [(R)-1-[(S)-1-(4-aminomethyl-benzylcarbamoyl)-2-phenyl-ethylcarbamoyl]-2-(4-ethoxy-phenyl)-ethyl]-amide], the figures for the concentration for half-maximal inhibition (IC50) at Human plasma kallikrein (substrate H-DPro-Phe-Arg-AFC) and against Human KLK1 (Table 13) were 0.061 µM and greater than 10 µM, respectively. `CCOc1ccc(C[C@@H](NC(=O)c2cc(F)nc(F)c2F)C(=O)N[C@@H](Cc2ccccc2)C(=O)NCc2ccc(CN)cc2)cc1` [Example 108, N-[(R)-1-[(S)-1-(4-Aminomethyl-benzylcarbamoyl)-2-phenyl-ethylcarbamoyl]-2-(4-ethoxy-phenyl)-ethyl]-2,3,6-trifluoro-isonicotinamide]: the half-maximal inhibitory concentration (IC50) at Human plasma kallikrein (substrate H-DPro-Phe-Arg-AFC) was 0.232 µM; on Human KLK1 (Table 13), greater than 10 µM.

Turning to `CCOc1ccc(C[C@@H](N)C(=O)N[C@@H](C(=O)NCc2ccc(CN)cc2)[C@@H](O)c2ccccc2)cc1` [Example 60, (R)-2-Amino-N-[(1R,2S)-1-(4-aminomethyl-benzylcarbamoyl)-2-hydroxy-2-phenyl-ethyl]-3-(4-ethoxy-phenyl)-propionamide], the IC50 on Human plasma kallikrein (setting [1]) was determined as 10 µM. `CCOc1ccc(C[C@@H](NC(=O)c2ccccc2)C(=O)N[C@@H](Cc2ccncc2)C(=O)NCc2ccc(CN)cc2)cc1` [Example 147, N-[(R)-1-[(S)-1-(4-Aminomethyl-benzylcarbamoyl)-2-pyridin-4-yl-ethylcarbamoyl]-2-(4-ethoxy-phenyl)-ethyl]-benzamide]: the IC50 at Human plasma kallikrein (substrate H-DPro-Phe-Arg-AFC) was 0.284 µM; on Human KLK1 (Table 13), greater than 10 µM. For the molecule `NCc1ccc(CNC(=O)[C@H](Cc2ccccc2)NC(=O)[C@@H](CC2CCCCC2)NC(=O)c2ccccc2)cc1` [Example 126, N-{(R)-1-[(S)-1-(4-Aminomethyl-benzylcarbamoyl)-2-phenyl-ethylcarbamoyl]-2-cyclohexyl-ethyl}-benzamide], the IC50 on Human plasma kallikrein (substrate H-DPro-Phe-Arg-AFC) was 4.01 µM; against Human KLK1 (Table 13), greater than 10 µM.

On to `CCOc1ccc(C[C@@H](NC(=O)c2ccccc2)C(=O)N[C@@H](Cc2cccc(C(F)(F)F)c2)C(=O)NCc2ccc(CN)cc2)cc1` [Example 144, N-[(R)-1-[(S)-1-(4-Aminomethyl-benzylcarbamoyl)-2-(3-trifluoromethyl-phenyl)-ethylcarbamoyl]-2-(4-ethoxy-phenyl)-ethyl]-benzamide], for which the 50% inhibitory concentration (IC50) was 0.34 µM at Human plasma kallikrein (substrate H-DPro-Phe-Arg-AFC) and greater than 10 µM at Human KLK1 (Table 13). For the molecule `COc1ccc(C[C@@H](NC(=O)c2ccccc2)C(=O)N[C@@H](Cc2ccccc2)C(=O)NCc2ccc(CN)cc2)cc1` [Example 138, N-[(R)-1-[(S)-1-(4-Aminomethyl-benzylcarbamoyl)-2-phenyl-ethylcarbamoyl]-2-(4-methoxy-phenyl)-ethyl]-benzamide], the IC50 is 0.31 µM on Human plasma kallikrein (substrate H-DPro-Phe-Arg-AFC) and greater than 10 µM against Human KLK1 (Table 13). Take `NCc1ccc(CNC(=O)[C@H](Cc2ccccc2)NC(=O)[C@@H](Cc2ccc(OCc3ccc(Cl)cc3)cc2)NC(=O)c2ccccc2)cc1` [Example 128, N-{(R)-1-[(S)-1-(4-Aminomethyl-benzylcarbamoyl)-2-phenyl-ethylcarbamoyl]-2-[4-(4-chloro-benzyloxy)-phenyl]-ethyl}-benzamide]: the results for the half-inhibitory concentration (IC50) on Human plasma kallikrein (substrate H-DPro-Phe-Arg-AFC) and at Human KLK1 (Table 13) were 2.01 µM and greater than 10 µM, respectively.

Take `NCc1ccc(CNC(=O)[C@H](Cc2ccccc2)NC(=O)[C@@H](Cc2ccc(Cl)cc2)NC(=O)c2ccccc2)cc1` [Example 127, N-[(R)-1-[(S)-1-(4-Aminomethyl-benzylcarbamoyl)-2-phenyl-ethylcarbamoyl]-2-(4-chloro-phenyl)-ethyl]-benzamide]: the half-maximal inhibitory concentration (IC50) on Human plasma kallikrein (substrate H-DPro-Phe-Arg-AFC) is 0.521 µM; against Human KLK1 (Table 13), greater than 10 µM. In the case of `CCOc1ccc(C[C@@H](NC(=O)c2sc(C)nc2C)C(=O)N[C@@H](Cc2ccccc2)C(=O)NCc2ccc(CN)cc2)cc1` [Example 111, 2,4-Dimethyl-thiazole-5-carboxylic acid [(R)-1-[(S)-1-(4-aminomethyl-benzylcarbamoyl)-2-phenyl-ethylcarbamoyl]-2-(4-ethoxy-phenyl)-ethyl]-amide], the IC50 is 0.058 µM on Human plasma kallikrein (substrate H-DPro-Phe-Arg-AFC) and greater than 10 µM against Human KLK1 (Table 13). Consider `CC(C)C[C@@H](NC(=O)c1ccccc1)C(=O)N[C@@H](Cc1ccccc1)C(=O)NCc1ccc(CN)cc1` [Example 133, N-{(R)-1-[(S)-1-(4-Aminomethyl-benzylcarbamoyl)-2-phenyl-ethylcarbamoyl]-3-methyl-butyl}-benzamide], for which the half-inhibitory concentration (IC50) on Human plasma kallikrein (substrate H-DPro-Phe-Arg-AFC) was 10 µM; against Human KLK1 (Table 13), greater than 10 µM.

On to `CCOc1ccc(C[C@@H](NC(=O)c2ccccc2)C(=O)N[C@@H](Cc2ccccc2F)C(=O)NCc2ccc(CN)cc2)cc1` [Example 180, N-[(R)-1-[(S)-1-(4-Aminomethyl-benzylcarbamoyl)-2-(2-fluoro-phenyl)-ethylcarbamoyl]-2-(4-ethoxy-phenyl)-ethyl]-benzamide], for which the IC50 was 0.073 µM at Human plasma kallikrein (substrate H-DPro-Phe-Arg-AFC) and greater than 10 µM on Human KLK1 (Table 13). As to `CCOc1ccc(C[C@@H](NC(=O)c2ccc3nc(C)ccc3c2)C(=O)N[C@@H](Cc2ccccc2)C(=O)NCc2ccc(CN)cc2)cc1` [Example 114, 2-Methyl-quinoline-6-carboxylic acid [(R)-1-[(S)-1-(4-aminomethyl-benzylcarbamoyl)-2-phenyl-ethylcarbamoyl]-2-(4-ethoxy-phenyl)-ethyl]-amide], the half-maximal inhibitory concentration (IC50) was 0.427 µM on Human plasma kallikrein (substrate H-DPro-Phe-Arg-AFC) and greater than 10 µM at Human KLK1 (Table 13).

On to `CCOc1ccc(C[C@@H](NC(=O)c2cccc(OC)n2)C(=O)N[C@@H](Cc2ccccc2)C(=O)NCc2ccc(CN)cc2)cc1` [Example 120, 6-Methoxy-pyridine-2-carboxylic acid [(R)-1-[(S)-1-(4-aminomethyl-benzylcarbamoyl)-2-phenyl-ethylcarbamoyl]-2-(4-ethoxy-phenyl)-ethyl]-amide], for which the concentration for half-maximal inhibition (IC50) on Human plasma kallikrein (substrate H-DPro-Phe-Arg-AFC) is 0.54 µM; against Human KLK1 (Table 13), greater than 10 µM. Turning to `NCc1ccc(CNC(=O)[C@H](Cc2ccccc2)NC(=O)[C@@H](Cc2ccc(OCc3ccc(F)cc3)cc2)NC(=O)c2ccccc2)cc1` [Example 130, N-{(R)-1-[(S)-1-(4-Aminomethyl-benzylcarbamoyl)-2-phenyl-ethylcarbamoyl]-2-[4-(4-fluoro-benzyloxy)-phenyl]-ethyl}-benzamide], the figures for the concentration for half-maximal inhibition (IC50) at Human plasma kallikrein (substrate H-DPro-Phe-Arg-AFC) and on Human KLK1 (Table 13) were 2.49 µM and greater than 10 µM, respectively. Regarding `CCOc1ccc(C[C@@H](NC(=O)c2ccc(OC(F)(F)F)cc2)C(=O)N[C@@H](Cc2ccccc2)C(=O)NCc2ccc(CN)cc2)cc1` [Example 80, N-[(R)-1-[(S)-1-(4-Aminomethyl-benzylcarbamoyl)-2-phenyl-ethylcarbamoyl]-2-(4-ethoxy-phenyl)-ethyl]-4-trifluoromethoxy-benzamide], the IC50 on Human plasma kallikrein (substrate H-DPro-Phe-Arg-AFC) was 0.398 µM; on Human KLK1 (Table 13) it was greater than 10 µM. `CN(CCO)[C@H](CC1CCCCC1)C(=O)N[C@@H](Cc1ccccc1)C(=O)NCc1ccc(CN)cc1` [Example 49, (R)-N-[(S)-1-(4-Aminomethyl-benzylcarbamoyl)-2-phenyl-ethyl]-3-cyclohexyl-2-[(2-hydroxy-ethyl)-methyl-amino]-propionamide]: the IC50 on Human plasma kallikrein (setting [1]) was 2.2 µM; on Human KLK1 (Table 12) it was greater than 10 µM. On to `CCOc1ccc(C[C@H](C(=O)N[C@@H](Cc2ccccc2)C(=O)NCc2ccc(CN)cc2)N(C)C)cc1` [Example 13, (R)-N-[(S)-1-(4-Aminomethyl-benzylcarbamoyl)-2-phenyl-ethyl]-2-dimethylamino-3-(4-ethoxy-phenyl)-propionamide], for which, at Human plasma kallikrein (setting [1]), the 50% inhibitory concentration (IC50) was 10 µM. As to `CCOc1ccc(C[C@@H](NC(=O)c2ccccc2)C(=O)N[C@@H](Cc2ccc(Cl)cc2)C(=O)NCc2ccc(CN)cc2)cc1` [Example 142, N-[(R)-1-[(S)-1-(4-Aminomethyl-benzylcarbamoyl)-2-(4-chloro-phenyl)-ethylcarbamoyl]-2-(4-ethoxy-phenyl)-ethyl]-benzamide], the half-maximal inhibitory concentration (IC50) is 0.096 µM on Human plasma kallikrein (substrate H-DPro-Phe-Arg-AFC) and greater than 10 µM on Human KLK1 (Table 13). In the case of `CCOc1ccc(C[C@@H](NC(=O)c2ccccc2)C(=O)N[C@@H](Cc2ccccc2)C(=O)NCc2ccc(CN)c(C(F)(F)F)c2)cc1` [Example 156, N-[(R)-1-[(S)-1-(4-Aminomethyl-3-trifluoromethyl-benzylcarbamoyl)-2-phenyl-ethylcarbamoyl]-2-(4-ethoxy-phenyl)-ethyl]-benzamide], the IC50 on Human plasma kallikrein (substrate H-DPro-Phe-Arg-AFC) was 1.08 µM; against Human KLK1 (Table 13), greater than 10 µM. Turning to `CCOc1ccc(C[C@@H](NC(=O)CC)C(=O)N[C@@H](C(=O)NCc2ccc(CN)cc2)[C@@H](O)c2ccccc2)cc1` [Example 62, (2R,3S)-N-(4-Aminomethyl-benzyl)-2-[(R)-3-(4-ethoxy-phenyl)-2-propionylamino-propionylamino]-3-hydroxy-3-phenyl-propionamide], the 50% inhibitory concentration (IC50) at Human plasma kallikrein (setting [1]) was no less than 10 µM. As to `CCOc1ccc(C[C@@H](NC(=O)CC)C(=O)N(CC)[C@@H](Cc2ccccc2)C(=O)NCc2ccc(CN)cc2)cc1` [Example 65, (S)-N-(4-Aminomethyl-benzyl)-2-{[(R)-3-(4-ethoxy-phenyl)-2-propionylamino-propionyl]-ethyl-amino}-3-phenyl-propionamide], the IC50 at Human plasma kallikrein (setting [1]) was no less than 10 µM.

(Values after US9234000B2, “Benzylamine derivatives as inhibitors of plasma kallikrein” (KalVista Pharmaceuticals Limited, priority 2011, dated 2016).)
